In patent publication US9744164B2, “Neuroprotective polyphenol analogs” (Salk Institute for Biological Studies, priority 2011, dated 2017):

How the values were obtained:
N9 microglial cells = assay: anti-inflammatory assay, LPS-induced microglial activation (NO release); type: cell-based, mouse; settings: bacterial lipopolysaccharide, derivative 1-10 μM, 24 hr
Outline: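 Mouse N9 microglia in DME/7.5% DFCS stimulated with 10 μg/ml LPS alone or with derivatives (1-10 μM) for 24 hr. NO in cleared medium measured by Griess reagent, 10 min at room temperature, absorbance at 550 nm. Fisetin (10 μM) as positive control.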

[1] = Shia, et al. 2009; cited from earlier work
rat cortical neurons = assay: trophic factor withdrawal; type: cell-based; settings: serum-containing medium, Baicalein 10-10,000 nM, 2 days
Description: FIG. 5A—trophic factor withdrawal. Primary cortical neurons are prepared from 18-day-old rat embryos, and cultured at low cell density 1×10^6/35 mm dish, in serum containing medium with Baicalein (10-10,000 nM), and viability assayed 2 days later using a live-dead assay. […] These include trophic factor withdrawal (TFW), excitotoxicity, glucose starvation, and most importantly, in a chemical ischemia model. […] (FIG. 5A). Using a published excitotoxicity assay, Baicalein rescues about 35% of the cells (FIG. 5B).

[2] = test system: embolic strokes in rabbits; settings: RSCEM, as published in the manuscript; cited from earlier work
PC12 cells = assay: glucose starvation assay; type: cell-based; settings: PC12 cells starved for glucose, MTT 24 hr
Description: FIG. 5C—PC12 cells were glucose-deprived then were incubates in the absence or presence of Baicalein. Cell viability was determined 24 hr later using the MTT assay. […] When these cells are starved for glucose, there is approximately 70% maximal survival in the presence of NGF. Baicalein promotes over 80% survival (FIG. 5C).

[3] = test system: primary mouse cortical neurons; assay: primary cortical cell glutamate excitotoxicity assay; type: cell-based; settings: E14 mouse primary cortical neurons, 10 μM glutamate 10 min, Baicalein 0.2-5 μM, MTT 24 hr
Description: FIG. 5B—excitotoxicity assay was done with E14 mouse primary cortical neuron cultures. After 11 days of culture, cells were exposed to 10 μM glutamate for 10 min, followed by the addition of varying concentrations of Baicalein (0.2-5 μM). Cell viability was determined 24 hr later with a standard MTT assay.
Excitotoxicity cell assay: Primary cultures of cortical neurons that die due to excitotoxicity were prepared as described previously. Briefly, BALB/c mouse embryo cortices were minced and treated with 0.1% trypsin for 20 min. After centrifugation, the cells are resuspended in 827 Neurobasal medium (Invitrogen) plus 10% fetal calf serum and are dissociated by repeated pipetting through a 1 mL blue Eppendorf pipette tip. Then the cells are plated at 1×10^5 cells per well in 96-well poly-L-lysine and laminin-coated microtiter plates (Becton Dickinson, Bedford, Mass., USA) in 827 Neurobasal plus 10% fetal calf serum and 20% glial growth-conditioned medium. Two days later the medium is aspirated and replaced by serum-free 827 Neurobasal medium plus 10 μg/mL cytosine arabinoside. The cultures are used without media change 11 days after plating and are essentially free of astrocytes. They are exposed to 10 μM glutamate followed by varying concentrations of the compounds. Cell viability is determined 24 h later using […]. […]

| Structure (SMILES) | microglia (anti-inflammatory activity) (N9 microglial cells) | other results |
| --- | --- | --- |
| O=c1c(O)c(-c2ccc(O)c(O)c2)oc2cc(O)ccc12 [Fisetin, 3,7,3′,4′-tetrahydroxy flavone] | 80% | bioavailability [1]: poor |
| O=c1cc(-c2ccccc2)oc2cc(O)c(O)c(O)c12 [Baicalein, 5,6,7-trihydroxyflavone] | – | survival of low-density cultured rat cortical neurons (rat cortical neurons): dramatically promotes the survival; therapeutic window [2]: ≥ 60 min; survival (PC12 cells): over 80%; cells rescued [3]: about 35% |
| O=c1c(O)c(-c2ccc(N3CCCC3)c(O)c2)oc2c1ccc1ccccc12 [CMS-140, 3-hydroxy-2-(3-hydroxy-4-(pyrrolidin-1-yl)phenyl)-4H-benzo[h]chromen-4-one] | 50% | – |
| COc1cc(-c2ccc(O)c(O)c2)nc2ccccc12 [CMS-007, 4-methoxy-2-(3,4-dihydroxyphenyl)quinoline] | 85% | – |
| COc1ccc(/C=C/C(=O)c2cc(C)c(C)cc2O)cc1OCc1ccccc1 [CMS-086, (E)-3-(3-(benzyloxy)-4-methoxyphenyl)-1-(2-hydroxy-4,5-dimethylphenyl)prop-2-en-1-one] | 70% | – |
| CC(C)Oc1cc(-c2ccc(O)c(O)c2)nc2ccccc12 [CMS-024, 4-isopropoxy-2-(3,4-dihydroxyphenyl)quinoline] | 80% | – |
| CCOc1cc(-c2ccc(O)c(O)c2)nc2ccccc12 [CMS-023, 4-ethoxy-2-(3,4-dihydroxyphenyl)quinoline] | 90% | – |
| Oc1ccc(-c2cc(OC3CCCC3)c3ccccc3n2)cc1O [CMS-121, 4-cyclopentyloxy-2-(3,4-dihydroxyphenyl)quinoline] | 82% | – |
| O=c1c(O)c(-c2ccc(O)c(O)c2)oc2ccccc12 [CMS-04P, reference compound] | 80% | – |
